Data as given in PubChem BioAssay (NCI).
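How tested: cells in 96-well plates exposed to compound for 48 hours at five concentrations. Here, GI50 denotes the concentration required for 50% inhibition of growth. Definition used: TGI = concentration required for complete inhibition of growth.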

Columns and labels:
Test in all cases: NCI tumour cell line growth inhibition, 48 h
786-0 renal = test system: 786-0 renal
A498 renal = test system: A498 renal
A549 NSCLC = test system: A549 NSCLC
ACHN renal = test system: ACHN renal
BT-549 breast = test system: BT-549 breast
CAKI-1 renal = test system: CAKI-1 renal
CCRF-CEM leukemia = test system: CCRF-CEM leukemia
COLO 205 colon = test system: COLO 205 colon
DU-145 prostate = test system: DU-145 prostate
EKVX NSCLC = test system: EKVX NSCLC
HCC-2998 colon = test system: HCC-2998 colon
HCT-116 colon = test system: HCT-116 colon
HCT-15 colon = test system: HCT-15 colon
HL-60(TB) leukemia = test system: HL-60(TB) leukemia
HOP-62 NSCLC = test system: HOP-62 NSCLC
HOP-92 NSCLC = test system: HOP-92 NSCLC
HS 578T breast = test system: HS 578T breast
HT29 colon = test system: HT29 colon
IGROV1 ovarian = test system: IGROV1 ovarian
K-562 leukemia = test system: K-562 leukemia
KM12 colon = test system: KM12 colon
LOX IMVI melanoma = test system: LOX IMVI melanoma
M14 melanoma = test system: M14 melanoma
MALME-3M melanoma = test system: MALME-3M melanoma
MCF7 breast = test system: MCF7 breast
MDA-MB-231 breast = test system: MDA-MB-231 breast
MDA-MB-435 = test system: MDA-MB-435
MOLT-4 leukemia = test system: MOLT-4 leukemia
NCI-H226 lung = test system: NCI-H226 lung
NCI-H23 lung = test system: NCI-H23 lung
NCI-H460 lung = test system: NCI-H460 lung
NCI-H522 lung = test system: NCI-H522 lung
NCI/ADR-RES ovarian = test system: NCI/ADR-RES ovarian
OVCAR-3 ovarian = test system: OVCAR-3 ovarian
OVCAR-4 ovarian = test system: OVCAR-4 ovarian
OVCAR-5 ovarian = test system: OVCAR-5 ovarian
OVCAR-8 ovarian = test system: OVCAR-8 ovarian
PC-3 prostate = test system: PC-3 prostate
SF-268 CNS = test system: SF-268 CNS
SF-295 CNS = test system: SF-295 CNS
SF-539 CNS = test system: SF-539 CNS
SK-MEL-2 melanoma = test system: SK-MEL-2 melanoma
SK-MEL-28 melanoma = test system: SK-MEL-28 melanoma
SK-MEL-5 melanoma = test system: SK-MEL-5 melanoma
SK-OV-3 ovarian = test system: SK-OV-3 ovarian
SN12C renal = test system: SN12C renal
SNB-19 CNS = test system: SNB-19 CNS
SNB-75 CNS = test system: SNB-75 CNS
SR leukemia = test system: SR leukemia
SW-620 colon = test system: SW-620 colon
T-47D breast = test system: T-47D breast
TK-10 renal = test system: TK-10 renal
U251 CNS = test system: U251 CNS
UACC-257 melanoma = test system: UACC-257 melanoma
UACC-62 melanoma = test system: UACC-62 melanoma
UO-31 renal = test system: UO-31 renal

COc1ccccc1N1CCN(CC(O)COc2c(Br)c(Br)c(Br)c3c2OC(C)(C)C3)CC1 (configuration not stated)
GI50 (786-0 renal): 12.8 µM | TGI (786-0 renal): 29.6 µM | GI50 (A498 renal): 20.4 µM | TGI (A498 renal): 47.9 µM | GI50 (A549 NSCLC): 16.6 µM | TGI (A549 NSCLC): 96.5 µM | GI50 (ACHN renal): 14.2 µM | TGI (ACHN renal): > 100 µM | GI50 (BT-549 breast): 12.5 µM | TGI (BT-549 breast): 34.1 µM | GI50 (CAKI-1 renal): 4.56 µM | TGI (CAKI-1 renal): 12.3 µM | GI50 (CCRF-CEM leukemia): 92.2 µM | TGI (CCRF-CEM leukemia): > 100 µM | GI50 (COLO 205 colon): 12.4 µM | TGI (COLO 205 colon): 30.4 µM | GI50 (DU-145 prostate): 16.5 µM | TGI (DU-145 prostate): 37.3 µM | GI50 (EKVX NSCLC): 8.85 µM | TGI (EKVX NSCLC): > 100 µM | GI50 (HCC-2998 colon): 4.57 µM | TGI (HCC-2998 colon): 16.5 µM | GI50 (HCT-116 colon): 4.45 µM | TGI (HCT-116 colon): 20.1 µM | GI50 (HCT-15 colon): 4.72 µM | TGI (HCT-15 colon): 24.8 µM | GI50 (HL-60(TB) leukemia): 5.05 µM | TGI (HL-60(TB) leukemia): > 100 µM | GI50 (HOP-62 NSCLC): 12.6 µM | TGI (HOP-62 NSCLC): 30.8 µM | GI50 (HOP-92 NSCLC): 6.15 µM | TGI (HOP-92 NSCLC): 24.1 µM | GI50 (HS 578T breast): 15 µM | TGI (HS 578T breast): 42 µM | GI50 (HT29 colon): 4.1 µM | TGI (HT29 colon): 14 µM | GI50 (IGROV1 ovarian): 12.8 µM | TGI (IGROV1 ovarian): 38.9 µM | GI50 (K-562 leukemia): 4.7 µM | TGI (K-562 leukemia): > 100 µM | GI50 (KM12 colon): 13.7 µM | TGI (KM12 colon): 56.1 µM | GI50 (LOX IMVI melanoma): 6.38 µM | TGI (LOX IMVI melanoma): 18.9 µM | GI50 (M14 melanoma): 13.2 µM | TGI (M14 melanoma): 37.5 µM | GI50 (MALME-3M melanoma): 16.1 µM | TGI (MALME-3M melanoma): 37.5 µM | GI50 (MCF7 breast): 25.5 µM | TGI (MCF7 breast): > 100 µM | GI50 (MDA-MB-231 breast): 12.9 µM | TGI (MDA-MB-231 breast): 32.1 µM | GI50 (MDA-MB-435): 16.2 µM | TGI (MDA-MB-435): 55.1 µM | GI50 (MOLT-4 leukemia): 4.25 µM | TGI (MOLT-4 leukemia): > 100 µM | GI50 (NCI-H226 lung): 13.2 µM | TGI (NCI-H226 lung): 64.5 µM | GI50 (NCI-H23 lung): 9.53 µM | TGI (NCI-H23 lung): 38.4 µM | GI50 (NCI-H460 lung): 8.78 µM | TGI (NCI-H460 lung): 54.4 µM | GI50 (NCI-H522 lung): 12.3 µM | TGI (NCI-H522 lung): 27.9 µM | GI50 (NCI/ADR-RES ovarian): 11.2 µM | TGI (NCI/ADR-RES ovarian): > 100 µM | GI50 (OVCAR-3 ovarian): 14.4 µM | TGI (OVCAR-3 ovarian): 34.6 µM | GI50 (OVCAR-4 ovarian): 8.93 µM | TGI (OVCAR-4 ovarian): > 100 µM | GI50 (OVCAR-5 ovarian): 19.4 µM | TGI (OVCAR-5 ovarian): > 100 µM | GI50 (OVCAR-8 ovarian): 31.5 µM | TGI (OVCAR-8 ovarian): 94.4 µM | GI50 (PC-3 prostate): 6.53 µM | TGI (PC-3 prostate): 43.4 µM | GI50 (SF-268 CNS): 33.3 µM | TGI (SF-268 CNS): > 100 µM | GI50 (SF-295 CNS): 4.68 µM | TGI (SF-295 CNS): 17.3 µM | GI50 (SF-539 CNS): 13.9 µM | TGI (SF-539 CNS): 32.1 µM | GI50 (SK-MEL-2 melanoma): 5.32 µM | TGI (SK-MEL-2 melanoma): 20.9 µM | GI50 (SK-MEL-28 melanoma): 17.3 µM | TGI (SK-MEL-28 melanoma): 36.8 µM | GI50 (SK-MEL-5 melanoma): 4.91 µM | TGI (SK-MEL-5 melanoma): 19.1 µM | GI50 (SK-OV-3 ovarian): 49.4 µM | TGI (SK-OV-3 ovarian): > 100 µM | GI50 (SN12C renal): 14.6 µM | TGI (SN12C renal): 32.9 µM | GI50 (SNB-19 CNS): 17.9 µM | TGI (SNB-19 CNS): 47.3 µM | GI50 (SNB-75 CNS): 18.1 µM | TGI (SNB-75 CNS): 94.1 µM | GI50 (SR leukemia): 7.83 µM | TGI (SR leukemia): > 100 µM | GI50 (SW-620 colon): 9.6 µM | TGI (SW-620 colon): 25.7 µM | GI50 (T-47D breast): 15.8 µM | TGI (T-47D breast): > 100 µM | GI50 (TK-10 renal): 15.4 µM | TGI (TK-10 renal): 46.7 µM | GI50 (U251 CNS): 10.6 µM | TGI (U251 CNS): 24.2 µM | GI50 (UACC-257 melanoma): 23.4 µM | TGI (UACC-257 melanoma): > 100 µM | GI50 (UACC-62 melanoma): 12 µM | TGI (UACC-62 melanoma): 30.6 µM | GI50 (UO-31 renal): 9.66 µM | TGI (UO-31 renal): 27.2 µM
